IC50 data for twelve compounds are collected here from patent publication US12258328B2, “6-membered heteroaryl-containing aminopyridine compounds as EGFR inhibitors” (YUHAN CORPORATION, priority 2021, dated 2025).

Assay [1] has as its target EGFR del19/T790M/C797S (Homo sapiens, UniProt P00533, C797S/DEL746-750/T790M). The assay can be described thus: Biochemical EGFR kinase assay (Lance Ultra TR-FRET), triple mutant del19/T790M/C797S. The method, boiled down:
(§1)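 Step 1: compound in kinase buffer, 0.003–10 μM. Step 2: kinase reaction 1 h at room temperature. Step 4: TR-FRET read at 615/665 nm; IC50 calculated.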

Assay [2] has as its target EGFR L858R/T790M/C797S (Homo sapiens, UniProt P00533, C797S/L858R/T790M). The assay can be described thus: Biochemical EGFR kinase assay (Lance Ultra TR-FRET), triple mutant L858R/T790M/C797S. An outline of the steps: as §1
On the technique in general: TR-FRET usually uses a lanthanide donor and a delayed reading to cut background.

Assay [3] addresses EGFR del19/C797S (Homo sapiens, UniProt P00533, C797S/DEL746-750). The assay can be described thus: Biochemical EGFR kinase assay (Lance Ultra TR-FRET), double mutant del19/C797S. The method, boiled down: as §1
Assay [4] addresses EGFR L858R/C797S (Homo sapiens, UniProt P00533, C797S/L858R). The assay can be described thus: Biochemical EGFR kinase assay (Lance Ultra TR-FRET), double mutant L858R/C797S. The method, boiled down:
as §1

Assay [5] addresses EGFR wildtype (Homo sapiens, UniProt P00533). Put plainly: Biochemical EGFR kinase assay (Lance Ultra TR-FRET), wildtype. The method, boiled down: as §1
Where [6] appears, read: IC50 del19/T790M/C797S (nM) 100 μM ATP, 100 μM ATP.
The mark [7] stands for this setting: IC50 L858R/T790M/C797S (nM) 100 μM ATP, 100 μM ATP.
Where [8] appears, read: IC50 del19/C797S (nM) 100 μM ATP, 100 μM ATP.
[9] abbreviates: Km ATP, read-out: IC50 del19/C797S (nM) Km ATP.
The mark [10] stands for this setting: IC50 L858R/C797S (nM) 100 μM ATP, 100 μM ATP.
Where [11] appears, read: Km ATP, read-out: IC50 L858R/C797S (nM) Km ATP.
Setting [12] is: IC50 WT (nM) 100 μM ATP, 100 μM ATP.
[13] abbreviates: Km ATP, read-out: IC50 WT (nM) Km ATP.
Setting [14] is: ATP at Km, read-out: IC50 del19/T790M/C797S, Km ATP.
Where [15] appears, read: ATP at Km, read-out: IC50 L858R/T790M/C797S, Km ATP.
[16] abbreviates: IC50 L858R/T790M/C797S, 100 μM ATP.
The mark [17] stands for this setting: ATP at Km, read-out: IC50 del19/C797S, Km ATP.
Where [18] appears, read: ATP at Km, read-out: IC50 L858R/C797S, Km ATP.
Where [19] appears, read: ATP at Km, read-out: IC50 WT, Km ATP.
[20] abbreviates: Km ATP, read-out: IC50 del19/T790M/C797S (nM) Km ATP.
[21] abbreviates: Km ATP, read-out: IC50 L858R/T790M/C797S (nM) Km ATP.

Where two headings read alike, the source gives them in different places.

EGFR del19/C797S, sequence (P00533 with tags, fused parts or gaps DEL746-750/C797S): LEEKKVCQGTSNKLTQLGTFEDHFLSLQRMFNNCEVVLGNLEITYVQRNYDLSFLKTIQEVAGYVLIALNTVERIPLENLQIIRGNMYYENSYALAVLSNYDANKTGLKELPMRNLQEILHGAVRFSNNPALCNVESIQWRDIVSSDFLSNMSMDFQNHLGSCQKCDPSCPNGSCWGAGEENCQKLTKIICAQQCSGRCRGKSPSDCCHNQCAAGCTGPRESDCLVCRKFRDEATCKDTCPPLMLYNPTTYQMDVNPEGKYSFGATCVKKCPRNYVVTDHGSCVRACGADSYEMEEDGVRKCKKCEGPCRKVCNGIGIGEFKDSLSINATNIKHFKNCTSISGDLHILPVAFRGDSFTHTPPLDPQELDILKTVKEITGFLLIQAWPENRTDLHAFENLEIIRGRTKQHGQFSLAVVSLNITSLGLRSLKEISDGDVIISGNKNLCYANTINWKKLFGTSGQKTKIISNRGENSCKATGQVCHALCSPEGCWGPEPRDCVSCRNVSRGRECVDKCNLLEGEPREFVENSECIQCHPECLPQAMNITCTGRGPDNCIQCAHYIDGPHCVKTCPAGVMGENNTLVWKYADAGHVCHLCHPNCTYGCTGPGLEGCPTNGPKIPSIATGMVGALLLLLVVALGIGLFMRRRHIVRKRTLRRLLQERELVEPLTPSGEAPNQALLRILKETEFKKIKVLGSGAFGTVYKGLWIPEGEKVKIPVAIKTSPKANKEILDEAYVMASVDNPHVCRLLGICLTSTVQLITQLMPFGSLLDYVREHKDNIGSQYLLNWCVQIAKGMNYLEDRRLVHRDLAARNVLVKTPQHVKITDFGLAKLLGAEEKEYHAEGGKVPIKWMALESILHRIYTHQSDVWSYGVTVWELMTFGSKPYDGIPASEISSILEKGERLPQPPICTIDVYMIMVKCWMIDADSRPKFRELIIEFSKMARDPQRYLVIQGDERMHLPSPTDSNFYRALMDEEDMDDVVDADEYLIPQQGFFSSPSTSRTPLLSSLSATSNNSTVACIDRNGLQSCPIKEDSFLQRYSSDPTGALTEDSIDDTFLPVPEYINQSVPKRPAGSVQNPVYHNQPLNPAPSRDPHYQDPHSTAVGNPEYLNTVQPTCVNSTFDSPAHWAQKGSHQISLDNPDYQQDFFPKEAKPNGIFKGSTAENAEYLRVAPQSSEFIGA
EGFR del19/T790M/C797S, sequence (P00533 with tags, fused parts or gaps DEL746-750/T790M/C797S): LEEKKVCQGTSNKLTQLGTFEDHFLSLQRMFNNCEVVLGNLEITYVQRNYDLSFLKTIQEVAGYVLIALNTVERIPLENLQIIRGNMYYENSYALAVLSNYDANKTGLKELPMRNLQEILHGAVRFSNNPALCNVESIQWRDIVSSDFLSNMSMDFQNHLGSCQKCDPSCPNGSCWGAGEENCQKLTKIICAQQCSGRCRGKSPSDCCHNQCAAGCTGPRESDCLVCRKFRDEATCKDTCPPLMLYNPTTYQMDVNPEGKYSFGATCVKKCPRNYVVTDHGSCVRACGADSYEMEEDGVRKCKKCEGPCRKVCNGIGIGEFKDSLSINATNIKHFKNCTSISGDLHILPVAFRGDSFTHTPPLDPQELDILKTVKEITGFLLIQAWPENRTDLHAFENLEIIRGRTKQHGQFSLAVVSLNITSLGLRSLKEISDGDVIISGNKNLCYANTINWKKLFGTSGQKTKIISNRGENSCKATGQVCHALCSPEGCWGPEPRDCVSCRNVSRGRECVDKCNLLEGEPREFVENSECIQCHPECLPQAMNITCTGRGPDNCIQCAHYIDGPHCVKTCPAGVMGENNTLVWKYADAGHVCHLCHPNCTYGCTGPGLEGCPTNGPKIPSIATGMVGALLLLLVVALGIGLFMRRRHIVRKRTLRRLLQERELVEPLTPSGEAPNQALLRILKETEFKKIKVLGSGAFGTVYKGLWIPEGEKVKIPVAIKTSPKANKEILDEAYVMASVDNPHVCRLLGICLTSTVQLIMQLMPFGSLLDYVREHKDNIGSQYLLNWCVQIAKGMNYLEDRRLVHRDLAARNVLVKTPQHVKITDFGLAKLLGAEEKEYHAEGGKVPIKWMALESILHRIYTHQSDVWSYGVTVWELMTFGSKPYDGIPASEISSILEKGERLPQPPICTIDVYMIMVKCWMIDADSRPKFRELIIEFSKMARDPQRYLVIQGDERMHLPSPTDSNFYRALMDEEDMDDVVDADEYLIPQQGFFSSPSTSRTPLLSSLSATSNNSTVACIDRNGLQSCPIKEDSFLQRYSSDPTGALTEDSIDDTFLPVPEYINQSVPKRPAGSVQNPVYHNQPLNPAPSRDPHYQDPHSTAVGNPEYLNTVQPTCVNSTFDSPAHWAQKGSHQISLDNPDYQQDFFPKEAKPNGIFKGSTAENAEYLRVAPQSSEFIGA
EGFR L858R/C797S, sequence (P00533 25-1210 C797S/L858R): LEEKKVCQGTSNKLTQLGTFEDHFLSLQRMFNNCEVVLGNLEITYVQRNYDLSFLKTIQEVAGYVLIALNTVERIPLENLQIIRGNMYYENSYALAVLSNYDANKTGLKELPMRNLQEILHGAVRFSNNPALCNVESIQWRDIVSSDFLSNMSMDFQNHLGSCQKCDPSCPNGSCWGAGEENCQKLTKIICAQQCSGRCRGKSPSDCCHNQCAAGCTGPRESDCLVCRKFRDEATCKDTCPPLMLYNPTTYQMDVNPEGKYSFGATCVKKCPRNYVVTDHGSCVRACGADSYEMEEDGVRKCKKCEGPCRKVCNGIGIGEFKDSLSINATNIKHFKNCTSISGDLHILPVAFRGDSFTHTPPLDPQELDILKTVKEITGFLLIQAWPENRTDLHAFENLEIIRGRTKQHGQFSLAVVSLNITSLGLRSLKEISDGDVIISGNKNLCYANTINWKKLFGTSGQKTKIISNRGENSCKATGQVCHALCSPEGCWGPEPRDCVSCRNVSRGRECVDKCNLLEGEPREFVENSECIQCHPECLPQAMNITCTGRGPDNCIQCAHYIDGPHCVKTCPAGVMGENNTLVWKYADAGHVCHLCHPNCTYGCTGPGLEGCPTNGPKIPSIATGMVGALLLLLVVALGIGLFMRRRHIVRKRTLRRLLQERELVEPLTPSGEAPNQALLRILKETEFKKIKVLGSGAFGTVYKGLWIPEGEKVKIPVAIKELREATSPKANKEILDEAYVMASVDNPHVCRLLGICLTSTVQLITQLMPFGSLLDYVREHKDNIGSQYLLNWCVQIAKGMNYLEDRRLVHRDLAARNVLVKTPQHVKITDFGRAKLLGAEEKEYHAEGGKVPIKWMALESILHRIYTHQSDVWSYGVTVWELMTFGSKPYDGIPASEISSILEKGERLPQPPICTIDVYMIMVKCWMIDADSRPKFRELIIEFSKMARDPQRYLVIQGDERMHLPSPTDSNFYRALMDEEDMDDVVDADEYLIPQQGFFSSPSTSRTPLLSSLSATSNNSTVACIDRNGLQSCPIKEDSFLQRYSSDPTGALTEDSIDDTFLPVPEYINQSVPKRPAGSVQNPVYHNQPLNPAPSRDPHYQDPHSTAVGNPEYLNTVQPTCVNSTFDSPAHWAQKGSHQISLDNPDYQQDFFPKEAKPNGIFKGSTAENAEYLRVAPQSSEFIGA
EGFR wildtype, sequence (P00533 25-1210): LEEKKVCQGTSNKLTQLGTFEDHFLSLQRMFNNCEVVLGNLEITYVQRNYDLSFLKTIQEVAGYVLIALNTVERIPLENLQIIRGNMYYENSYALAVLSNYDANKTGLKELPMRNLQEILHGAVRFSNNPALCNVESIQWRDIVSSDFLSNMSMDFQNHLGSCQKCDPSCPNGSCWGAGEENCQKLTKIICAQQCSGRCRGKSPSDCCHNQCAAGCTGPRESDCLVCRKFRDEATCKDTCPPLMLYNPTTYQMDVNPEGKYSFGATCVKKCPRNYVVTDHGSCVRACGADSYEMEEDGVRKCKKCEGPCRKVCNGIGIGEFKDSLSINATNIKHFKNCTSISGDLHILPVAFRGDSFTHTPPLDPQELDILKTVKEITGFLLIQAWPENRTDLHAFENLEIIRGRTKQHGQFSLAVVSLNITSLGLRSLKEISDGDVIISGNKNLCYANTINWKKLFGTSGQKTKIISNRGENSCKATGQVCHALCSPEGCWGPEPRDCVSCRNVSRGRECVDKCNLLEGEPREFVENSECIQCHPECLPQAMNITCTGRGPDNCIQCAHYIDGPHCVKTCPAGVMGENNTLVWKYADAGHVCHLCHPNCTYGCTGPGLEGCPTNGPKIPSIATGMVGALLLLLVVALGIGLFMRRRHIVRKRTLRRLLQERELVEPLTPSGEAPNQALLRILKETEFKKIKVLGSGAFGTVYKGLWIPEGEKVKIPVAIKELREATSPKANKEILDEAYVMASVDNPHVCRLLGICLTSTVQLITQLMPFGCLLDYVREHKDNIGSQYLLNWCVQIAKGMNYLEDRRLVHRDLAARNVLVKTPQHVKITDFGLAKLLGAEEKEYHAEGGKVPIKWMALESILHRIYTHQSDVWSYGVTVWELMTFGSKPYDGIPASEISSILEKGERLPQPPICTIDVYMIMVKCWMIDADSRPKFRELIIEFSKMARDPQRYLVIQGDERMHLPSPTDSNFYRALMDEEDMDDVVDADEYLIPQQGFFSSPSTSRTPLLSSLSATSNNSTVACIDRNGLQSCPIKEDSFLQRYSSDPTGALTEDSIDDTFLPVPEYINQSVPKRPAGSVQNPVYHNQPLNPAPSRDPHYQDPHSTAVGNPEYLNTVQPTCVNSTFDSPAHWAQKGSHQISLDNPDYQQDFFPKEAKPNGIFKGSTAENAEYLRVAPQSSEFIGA

In the case of `CN1CCN(c2ccnc(-c3cnc(Nc4ccnc(-c5cnn(S(=O)(=O)C6CC6)c5)n4)cc3N[C@H]3CC[C@@](C)(O)CC3)c2)CC1` [Example 58, (1s,4s)-4-((6′-((2-(1-(Cyclopropylsulfonyl)-1H-pyrazol-4-yl)pyrimidin-4-yl)amino)-4-(4-methylpiperazin-1-yl)-[2,3′-bipyridin]-4′-yl)amino)-1-methylcyclohexan-1-ol], the IC50 in assay [1] (setting [6]) was determined as 1.1 nM; in assay [2] (setting [7]), 1.1 nM; in assay [3] (setting [8]), 7.2 nM; in assay [3] (setting [9]), 8 nM; in assay [4] (setting [10]), 56.4 nM; in assay [4] (setting [11]), 1.7 nM. In addition, the IC50 was over 10000 nM in assay [5] (setting [12]) and 97.7 nM in assay [5] (setting [13]).
In the case of `CN(C)C[C@H]1CC[C@@H](Nc2cc(Nc3ccnc(-c4cnn(S(=O)(=O)C5CC5)c4)n3)ncc2-c2ccc(CC(F)(F)F)cn2)CC1` [Example 221, N^6′-(2-(1-(Cyclopropylsulfonyl)-1H-pyrazol-4-yl)pyrimidin-4-yl)-N^4′-((1s,4s)-4-((dimethylamino)methyl)cyclohexyl)-5-(2,2,2-trifluoroethyl)-[2,3′-bipyridine]-4′,6′-diamine], the IC50 was determined as 1.1 nM in assay [1] (setting [14]); 1.4 nM in assay [1] (IC50 del19/T790M/C797S, 100 μM ATP); 0.3 nM in assay [2] (setting [15]); 0.5 nM in assay [2] (setting [16]); 1.1 nM in assay [3] (setting [17]); 1 nM in assay [4] (setting [18]). The IC50 amounted to 5.7 nM in assay [4] (IC50 L858R/C797S, 100 μM ATP); 2.1 nM in assay [5] (setting [19]); 767 nM in assay [5] (IC50 WT, 100 μM ATP).
Regarding `O=S(=O)(C1CC1)n1cc(-c2nccc(Nc3cc(N[C@H]4CC[C@@H](NCCF)CC4)c(-c4ccccn4)cn3)n2)cn1` [Example 36, N^6′-(2-(1-(Cyclopropylsulfonyl)-1H-pyrazol-4-yl)pyrimidin-4-yl)-N^4′-((1s,4s)-4-((2-fluoroethyl)amino)cyclohexyl)-[2,3′-bipyridine]-4′,6′-diamine], the IC50 was found to be 0.2 nM in assay [1] (setting [6]); 0.1 nM in assay [1] (setting [20]); 0.1 nM in assay [2] (setting [7]); 0.1 nM in assay [2] (setting [21]); 0.9 nM in assay [3] (setting [8]); 0.5 nM in assay [3] (setting [9]). Besides, the IC50 in assay [4] (setting [10]) was 15.7 nM; in assay [4] (setting [11]), 1 nM; in assay [5] (setting [12]) it was 3080 nM; in assay [5] (setting [13]), 5.8 nM.
For `COC(c1ccc(-c2cnc(Nc3ccnc(-c4cnn(S(=O)(=O)C5CC5)c4)n3)cc2NC2CCC(CO)CC2)nc1)C(F)(F)F` (stereo not shown) [Example 261, ((1s,4s)-4-((6′-((2-(1-(Cyclopropylsulfonyl)-1H-pyrazol-4-yl)pyrimidin-4-yl)amino)-5-(2,2,2-trifluoro-1-methoxyethyl)-[2,3′-bipyridin]-4′-yl)amino)cyclohexyl)methanol], the IC50 in assay [1] (setting [14]) is 9.6 nM; in assay [2] (setting [15]), 4.1 nM; in assay [3] (setting [17]) it was 10.3 nM; in assay [4] (setting [18]), 7.5 nM; in assay [5] (setting [19]), 9.2 nM.
`CN(C)Cc1ccc(-c2cnc(Nc3ccnc(-c4cnn(S(=O)(=O)C5CC5)c4)n3)cc2N[C@H]2CC[C@@H](C(C)(C)O)CC2)nc1` [Example 26, 2-((1s,4s)-4-((6′-((2-(1-(Cyclopropylsulfonyl)-1H-pyrazol-4-yl)pyrimidin-4-yl)amino)-5-((dimethylamino)methyl)-[2,3′-bipyridin]-4′-yl)amino)cyclohexyl)propan-2-ol]: the IC50 came to 0.4 nM in assay [1] (setting [6]); 0.4 nM in assay [1] (setting [20]); 0.4 nM in assay [2] (setting [7]); 0.2 nM in assay [2] (setting [21]); 0.2 nM in assay [3] (setting [8]); 0.2 nM in assay [3] (setting [9]). Further, the IC50 in assay [4] (setting [10]) is 0.7 nM; in assay [4] (setting [11]) it was 0.1 nM; in assay [5] (setting [12]), 107 nM; in assay [5] (setting [13]), 0.9 nM.
Consider `CC(C)(F)c1ccc(-c2cnc(Nc3ccnc(-c4cnn(S(=O)(=O)C5CC5)c4)n3)cc2N[C@H]2CC[C@@](C)(O)CC2)nc1` [Example 291, (1s,4s)-4-((6′-((2-(1-(Cyclopropylsulfonyl)-1H-pyrazol-4-yl)pyrimidin-4-yl)amino)-5-(2-fluoropropan-2-yl)-[2,3′-bipyridin]-4′-yl)amino)-1-methylcyclohexan-1-ol], for which the IC50 in assay [1] (setting [14]) amounted to 0.5 nM; in assay [2] (setting [15]), 0.5 nM; in assay [2] (setting [16]), 1 nM; in assay [3] (IC50 del19/C797S, 100 μM ATP), 4.9 nM; in assay [4] (setting [18]), 2.3 nM; in assay [4] (IC50 L858R/C797S, 100 μM ATP) it was 2.8 nM. Besides, the IC50 in assay [5] (setting [19]) is 3.7 nM; in assay [5] (IC50 WT, 100 μM ATP), over 10000 nM.
As to `O=S(=O)(C1CC1)n1cc(-c2nccc(Nc3cc(N[C@H]4CC[C@@H](F)CC4)c(-c4cnc(OC5CCOCC5)cn4)cn3)n2)cn1` [Example 151, N^2-(2-(1-(Cyclopropylsulfonyl)-1H-pyrazol-4-yl)pyrimidin-4-yl)-N^4-((1s,4s)-4-fluorocyclohexyl)-5-(5-((tetrahydro-2H-pyran-4-yl)oxy)pyrazin-2-yl)pyridine-2,4-diamine], the IC50 in assay [1] (setting [14]) stood at 0.8 nM; in assay [2] (setting [15]), 0.1 nM; in assay [3] (setting [17]), 34 nM; in assay [4] (setting [18]) it was 17.2 nM; in assay [5] (setting [19]) it was 1910 nM.
For `CC(C)Nc1cc(Nc2ccnc(-c3cnn(S(=O)(=O)C4CC4)c3)n2)ncc1-c1cnc(C(C)(C)O)cn1` [Example 121, 2-(5-(6-((2-(1-(Cyclopropylsulfonyl)-1H-pyrazol-4-yl)pyrimidin-4-yl)amino)-4-(isopropylamino)pyridin-3-yl)pyrazin-2-yl)propan-2-ol], the IC50 in assay [1] (setting [20]) was 0.5 nM; in assay [2] (setting [21]) it was 0.2 nM; in assay [3] (setting [9]), 4.6 nM; in assay [4] (setting [11]) it was 2.9 nM; in assay [5] (setting [13]), 22.6 nM.
For `CN1CCN(Cc2ccnc(-c3cnc(Nc4ccnc(-c5cnn(S(=O)(=O)C6CC6)c5)n4)cc3N[C@H]3CC[C@@](C)(O)CC3)c2)CC1` [Example 55, (1s,4s)-4-((6′-((2-(1-(Cyclopropylsulfonyl)-1H-pyrazol-4-yl)pyrimidin-4-yl)amino)-4-((4-methylpiperazin-1-yl)methyl)-[2,3′-bipyridin]-4′-yl)amino)-1-methylcyclohexan-1-ol], the IC50 amounted to 1.7 nM in assay [1] (setting [6]); 0.7 nM in assay [1] (setting [20]); 0.4 nM in assay [2] (setting [7]); 1.1 nM in assay [3] (setting [8]); 0.5 nM in assay [3] (setting [9]); 1 nM in assay [4] (setting [10]). Further, the values for the IC50 in assay [4] (setting [11]), in assay [5] (setting [12]) and in assay [5] (setting [13]) were 0.3 nM, 754 nM and 1.9 nM, respectively.
With `FC(F)Cn1cc(-c2nccc(Nc3cc(N[C@H]4CC[C@@H](F)CC4)c(-c4ccc(CN5CCOCC5)cn4)cn3)n2)cn1` [Example 136, N^6′-(2-(1-(2,2-difluoroethyl)-1H-pyrazol-4-yl)pyrimidin-4-yl)-N^4′-((1s,4s)-4-fluorocyclohexyl)-5-(morpholinomethyl)-[2,3′-bipyridine]-4′,6′-diamine], the IC50 is 0.5 nM in assay [1] (setting [20]); 0.2 nM in assay [2] (setting [21]); 19.1 nM in assay [3] (setting [9]); 6.4 nM in assay [4] (setting [11]); 69.8 nM in assay [5] (setting [13]).
`CN1CCN(c2ccc(-c3cnc(Nc4ccnc(-c5cnn(S(=O)(=O)C6CC6)c5)n4)cc3N[C@H]3CC[C@@](C)(O)CC3)nn2)CC1` [Example 46, (1s,4s)-4-((2-((2-(1-(Cyclopropylsulfonyl)-1H-pyrazol-4-yl)pyrimidin-4-yl)amino)-5-(6-(4-methylpiperazin-1-yl)pyridazin-3-yl)pyridin-4-yl)amino)-1-methylcyclohexan-1-ol]: the IC50 in assay [1] (setting [6]) was 0.3 nM; in assay [1] (setting [20]), 0.2 nM; in assay [2] (setting [7]), 0.2 nM; in assay [2] (setting [21]) it was 0.1 nM; in assay [3] (setting [8]), 0.4 nM; in assay [3] (setting [9]), 0.2 nM. Also, the IC50 in assay [4] (setting [10]) was 0.9 nM; in assay [4] (setting [11]) it was 0.2 nM; in assay [5] (setting [12]), over 10000 nM; in assay [5] (setting [13]), 0.9 nM.
On to `CC(C)(O)c1ccnc(-c2cnc(Nc3ccnc(-c4cnn(S(=O)(=O)C5CC5)c4)n3)cc2N[C@H]2CC[C@@](C)(O)CC2)c1` [Example 108, (1s,4s)-4-((6′-((2-(1-(Cyclopropylsulfonyl)-1H-pyrazol-4-yl)pyrimidin-4-yl)amino)-4-(2-hydroxypropan-2-yl)-[2,3′-bipyridin]-4′-yl)amino)-1-methylcyclohexan-1-ol], for which the IC50 in assay [1] (setting [6]) stood at 0.4 nM; in assay [1] (setting [20]), 0.4 nM; in assay [2] (setting [7]) it was 0.2 nM; in assay [2] (setting [21]) it was 0.2 nM; in assay [3] (setting [8]), 0.9 nM; in assay [3] (setting [9]), 0.4 nM. The IC50 turned out to be 3.6 nM in assay [4] (setting [10]), 0.4 nM in assay [4] (setting [11]), 1860 nM in assay [5] (setting [12]) and 6.9 nM in assay [5] (setting [13]).
